The supplement of paper PMC10307832

What was measured:
Assay in all cases: relative viability (nuclei count vs DMSO), 5 days (fraction); higher = more cells survive
AZD5582 = compound: C[C@@H](C(=O)N[C@@H](C1CCCCC1)C(=O)N2CCC[C@H]2C(=O)N[C@@H]3[C@@H](CC4=CC=CC=C34)OCC#CC#CCO[C@@H]5CC6=CC=CC=C6[C@@H]5NC(=O)[C@@H]7CCCN7C(=O)[C@H](C8CCCCC8)NC(=O)[C@H](C)NC)NC [AZD5582]
In short: (§1)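 Lung cancer cell lines received five library-drug doses (not always all listed) spaced by √10, pinned on vehicle-anchored 1536-well plates after an overnight stay at 37 °C. Five days later, with no medium change, nuclei were Hoechst-stained, imaged at 4× and counted with MetaXpress. Viability is treated-well nuclei relative to vehicle-well nuclei, as a median across plates. Passing plates had control CV below 25% and at least one doubling.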

Temozolomide = compound: Cn1nnc2c(C(N)=O)ncn2c1=O [Temozolomide]
In short: as §1

AZD5582 + Trametinib = compound: C[C@@H](C(=O)N[C@@H](C1CCCCC1)C(=O)N2CCC[C@H]2C(=O)N[C@@H]3[C@@H](CC4=CC=CC=C34)OCC#CC#CCO[C@@H]5CC6=CC=CC=C6[C@@H]5NC(=O)[C@@H]7CCCN7C(=O)[C@H](C8CCCCC8)NC(=O)[C@H](C)NC)NC [AZD5582] + CC(=O)Nc1cccc(-n2c(=O)n(C3CC3)c(=O)c3c(Nc4ccc(I)cc4F)n(C)c(=O)c(C)c32)c1 [Trametinib] (partner 0.02 µM)
In short: (§2)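 Lung cancer cell lines in 1536-well plates got either a single drug or a fixed anchor-drug dose together with five library-drug doses (not always all listed) in √10 steps, by pin tool, on the day after seeding. Nuclei were counted after 5 days, and relative viability is the treated-to-vehicle ratio of nuclei counts. Values are medians of duplicate plates.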

[1] = compound: Cn1nnc2c(C(N)=O)ncn2c1=O [Temozolomide] + CC1(C)CCC(c2ccc(Cl)cc2)=C(CN2CCN(c3ccc(C(=O)NS(=O)(=O)c4ccc(N[C@H](CCN5CCOCC5)CSc5ccccc5)c(S(=O)(=O)C(F)(F)F)c4)cc3)CC2)C1 [Navitoclax] (partner 0.5 µM)
In short: as §2

| Cell Line | relative viability (AZD5582; 0.001581 µM) | relative viability (AZD5582; 0.005 µM) | relative viability (AZD5582; 0.01581 µM) | relative viability (AZD5582; 0.05 µM) | relative viability (Temozolomide; 0.6325 µM) | relative viability (Temozolomide; 2 µM) | relative viability (Temozolomide; 6.325 µM) | relative viability (Temozolomide; 20 µM) | relative viability (AZD5582 + Trametinib; first compound 0.001581 µM) | relative viability (AZD5582 + Trametinib; first compound 0.005 µM) | relative viability (AZD5582 + Trametinib; first compound 0.01581 µM) | relative viability (AZD5582 + Trametinib; first compound 0.05 µM) | relative viability ([1]; first compound 0.6325 µM) | relative viability ([1]; first compound 2 µM) | relative viability ([1]; first compound 6.325 µM) | relative viability ([1]; first compound 20 µM) | relative viability (Temozolomide; 0.2 µM) | relative viability ([1]; first compound 0.2 µM) |
| --- | --- | --- | --- | --- | --- | --- | --- | --- | --- | --- | --- | --- | --- | --- | --- | --- | --- | --- |
| NCI-H322M | 1.02 | 1.15 | 0.938 | 1.03 | 0.931 | 1 | 0.957 | 0.577 | 0.561 | 0.62 | 0.496 | 0.68 | 1.36 | 1.28 | 1.21 | 0.967 |  |  |
| EMC-BAC-2 | 0.835 | 0.993 | 0.791 | 0.891 | 1.07 | 1.03 | 0.943 | 1 | 0.757 | 0.841 | 0.737 | 0.797 | 1.24 | 1.16 | 1.2 | 1.2 | 1.07 | 1.07 |
| NCI-H3122 | 0.938 | 1.02 | 1 | 0.265 | 1.03 | 1.06 | 0.945 | 0.97 | 0.269 | 0.224 | 0.24 | 0.206 | 1.03 | 1.08 | 1.01 | 0.976 | 1.02 | 1.05 |
| NCI-H520 | 0.955 | 1.05 | 0.947 | 1.1 | 0.999 | 1.13 | 0.981 | 0.97 | 0.605 | 0.784 | 0.791 | 0.708 | 1.09 | 1.15 | 1.12 | 1.01 | 1.06 | 1.13 |
| HARA | 0.974 | 1.1 | 0.746 | 0.662 | 1.02 | 1.05 | 0.886 | 0.831 | 0.464 | 0.719 | 0.747 | 0.976 | 1.17 | 1.24 | 1.13 | 1.2 | 0.979 | 1.19 |
| NCI-H1650 | 0.87 | 1.05 | 0.899 | 0.759 | 0.938 | 0.933 | 0.952 | 0.773 | 0.447 | 0.596 | 0.514 | 0.621 | 1.33 | 1.08 | 1.28 | 0.974 | 0.955 | 1.39 |
| NCI-H2347 | 0.956 | 1.03 | 0.919 | 0.979 | 1.16 | 1.08 | 0.979 | 0.976 | 0.327 | 0.266 | 0.264 | 0.311 | 0.825 | 0.441 | 0.73 | 0.732 | 1.06 | 0.818 |
| UMC-11 | 0.887 | 1.01 | 0.96 | 1.03 | 1.06 | 1.05 | 0.858 | 0.677 | 0.624 | 0.679 | 0.629 | 0.417 | 0.315 | 0.313 | 0.281 | 0.274 | 0.994 | 0.338 |
| NCI-H2009 | 0.916 | 1.09 | 0.943 | 0.988 | 1.01 | 1.05 | 0.923 | 1.06 | 0.281 | 0.297 | 0.295 | 0.333 | 1.22 | 1.12 | 1.17 | 1.25 | 1.05 | 1.2 |
| NCI-H1437 | 0.915 | 1 | 0.979 | 0.983 | 1.01 | 0.997 | 1.04 | 1.02 | 0.43 | 0.572 | 0.461 | 0.573 | 1.12 | 1.13 | 1.13 | 1.17 | 0.998 | 1.15 |
| NCI-H647 | 0.904 | 0.971 | 0.865 | 0.957 | 1.01 | 0.906 | 0.684 | 0.265 | 0.417 | 0.477 | 0.443 | 0.47 | 1.24 | 1.24 | 0.73 | 0.291 | 1 | 1.16 |
| NCI-H1395 | 0.866 | 1 |  | 0.988 | 0.96 | 0.906 | 0.745 | 0.867 | 0.961 | 1.22 |  | 1.28 | 1.14 | 1.14 | 1.1 | 1.05 | 1 | 1.26 |
| NCI-H1915 | 0.899 | 1 | 0.805 | 0.947 | 0.987 | 0.946 | 0.602 | 0.386 | 0.309 | 0.294 | 0.296 | 0.373 | 0.754 | 0.684 | 0.495 | 0.305 | 1.09 | 0.797 |
| BEN | 0.926 | 1.01 | 1.05 | 0.828 | 0.94 | 1.03 | 0.813 | 0.766 | 0.893 | 1.13 | 1.05 | 1.2 | 0.0697 | 0.0579 | 0.0678 | 0.0653 | 0.956 | 0.0644 |
| LC-2-ad | 0.997 | 1.09 | 0.965 | 1.03 | 1.09 | 1.04 | 0.971 | 0.78 | 0.92 | 1.04 | 0.942 | 1.04 | 0.437 | 0.358 | 0.374 | 0.336 | 1.06 | 0.598 |
| LXF-289 | 0.958 | 1.01 | 0.968 | 1 | 0.959 | 1.01 | 1.03 | 0.892 | 0.641 | 0.647 | 0.654 | 0.726 | 0.91 | 0.946 | 0.937 | 0.847 | 1.04 | 0.98 |
